Measurements published in patent US20030134859A1 (SANKYO COMPANY, LIMITED, priority 2000, published 2003).

Key:
[1] = system: leptin production; test: Enhancing activity for leptin production in adipocytes (ELISA); type: cell-based, rat; conditions: Rattus norvegicus, Adipocyte, 24 h, leptin concentration as % of control group, read-out: Facilitating activity to produce leptin; for activity at 0.1 µM: 100 nm; for activity at 0.01 µM: 10 nm
Experimental: Hanks solution was used for collection of adipose tissue. The Hanks solution was prepared by filtration of a mixed solution (pH: 7.5) of 120 mM NaCl, 4.8 mM KCl, 0.74 mM MgSO4, 0.30 mM Na2HPO4, 0.40 mM KH2PO4, 20 mM HEPES, 0.05% (w/v) glucose, 2% (w/v) BSA (Sigma-Aldrich Japan K. K., Cat. No. A7888), 0.95 mM CaCl2, 4.17 mM NaHCO3 and 1% (v/v) penicillin-streptomycin liquid (GIBCO BRL, Cat. No. 15140-122). The adipocytes were cultured in Dulbecco's modified Eagle's medium (GIBCO BRL, Cat. No. 11995-040) mixed with DMEM/F-12 (GIBCO BRL, Cat. No. 11320-033) at a ratio of 1:1, and added 0.2% (v/v) Hanks solution, 0.2 μg/L sodium selenite (GIBCO BRL, Cat. No. 13012-018), 0.002% (v/v) ethanolamine, 25 mM HEPES and 1% (v/v) penicillin-streptomycin liquid (GIBCO BRL, Cat. No. 15140-122). As many as possible of the other reagents used were special grade. In this experiment, the cells were cultured in a CO2 incubator (37° C., 95% humidity, 5% CO2).
Male Wistar Imamichi rats of 6 weeks old were sacrificed by bleeding following decapitation, and adipose tissue was removed from the epididymis and sectioned after the vessels were removed in warmed Hanks solution at 37° C. and were weighed. One (1) mL of Hanks solution containing 10 mg collagenase (Wako Pure Chemical Industries, Ltd., 034-10533) was added to the adipose tissue prepared. The solution was transferred into a tube having a volume of 50 mL, and the cells were evenly dispersed by incubation under gentle shaking at 37° C., 90 rpm, for 50 min. Then 20 mL of Hanks solution were added and filtrated through Nylon-mesh with a mesh diameter of 200 μm for removal of undigested tissue pieces. The floating adipocytes were separated from sediments and substances located in the lower layer by centrifugation at 1,000 rpm for 1 min at room temperature. The sediment and 22 mL of the low layer were pulled out with a probe, and the floating adipocytes were recovered. This procedure was repeated twice with Hanks solution and for 4 times with the culture medium. After these procedures the adipocytes were suspended in the culture medium at a volume of 60 mL per 1 g of the adipose tissue weighed previously. 100 μL of the suspended solution were plated in each well of a 96-well microplate (ASAHI TECHNO GLASS Corp.) In the group treated with the test compound, 1 μL/well of DMSO solution containing the dissolved the test compound at concentrations of 200 μM, 20 μM, 2 μM and 0.2 μM (final concentrations of the test compound: 1 μM, 100 nM, 10 nM and 1 nM, respectively) was plated in each of the well. In the control group, 1 μL/well of DMSO (final concentration: 0.1% (v/v)) was plated in each well. The plate was placed stationary in a CO2 incubator for 1 hr or longer, and the contents in the solution were equilibrated at 37° C. After they were equilibrated, the solution in each well was stirred with a magnetic stirrer in a water bath and the suspended solution maintained at 37° C. was plated into each well of the plate at 100 μL/well. After incubation of the cells for 24 hr, the suspended solution of cells was filtrated through a filter for the microplate, MultiScreen (MILLOPORE, MDV-N65). The concentration of leptin in the filtrated solution was determined with ELISA methods by using a Rat Leptin Determination Kit-IBL (Immuno-Biological Laboratories Co., Ltd., Cat. No. 17195). The facilitating activity of the compound to produce leptin was calculated from the following equation based on the concentration of leptin determined.
Facilitating Activity of the Compound to Produce Leptin (%)=(A/B)×100
A: Concentration of Leptin in the Treated Group with the Test Compound.
B: Concentration of Leptin in the Control Group.

[2] = system: Rat white adipocytes; test: Inhibition of the differentiation of adipocytes (Oil Red O); type: cell-based; conditions: Rattus norvegicus, Adipocyte, 120 h, 100 nM test compound; 5 days; Oil Red O ABS550; control = 100%, blank = 0%; Table 3; read-out: Rate of Differentiation (%)
Experimental: Rat white adipocytes contained in the white adipocyte culture kit purchased from HOKUDO were used. As the medium for proliferation and for differentiation-inducing, the medium contained in the white adipocyte culture kit purchased from HOKUDO was used. The cells in the present experiment were cultured in a CO2 incubator (37° C., 95% R.H., 5% CO2).
Immediately after arrival of the purchased cells, all medium for transportation was discarded and replaced with 5 ml of proliferation medium (/25 cm^2-flask) and the cells were cultured for one day. Then, a cell suspension was prepared with proliferation medium so as to be 83,000 cells/mL, and the cell suspension was plated into a type I 96-well collagen-coated microplate (SUMITOMO BAKELITE CO., ltd.) so as to be 5,000 cells/well (60 μL/well).
On the next day, all the proliferation medium was discarded and replaced with 147 μL/well of differentiation-inducing medium. Further, 1) in the group treated with the test compound, 3 μL/well of the solution, in which a test compound (100 μM) was dissolved in DMSO solution and diluted with differentiation-inducing medium by 20 times (final concentration of the test compound: 100 nM, final concentration of DMSO solution: 0.1% (v/v)), were added to the well where the cells were plated. 2) In the control group, 3 μL/well of DMSO solution that was diluted with differentiation-inducing medium by 20 times (final concentration of DMSO: 0.1% (v/v)) were added to the well where the cells were plated. Further, 3) in the blank group, 3 μL/well of DMSO solution that was diluted with differentiation-inducing medium by 20 times (final concentration: 0.1% (v/v)), was added to the blank well.
After culturing for 5 days, all differentiation-inducing medium was discarded and replaced with 60 μL of 10% (v/v) formaldehyde solution (for fixation) in each well and the cells were kept stationary for 20 min at room temperature. After this, the fixative solution was discarded and replaced with 60 μL of 0.2% (v/v) Triton X (Sigma-Aldrich Japan K. K.) solution in each well and kept stationary for 5 min at room temperature. Then all Triton X solution was discarded and replaced with 60 μL of 60% (v/v) isopropanol solution containing dissolved Oil Red O (Sigma-Aldrich Japan K. K.) so as to be 0.3%, which was adipose tissue staining solution, and the well was left stationary for 10 min at room temperature. After the adipose tissue staining solution was discarded, the well was washed twice with 60 JIL of 60% isopropanol solution. Then, 100 μL of the DMSO solution were added to each well and stirred for 5 min at room temperature, The absorbance was measured at 550 nm (ABS550) with a multi-plate reader (LabSystems), and the stained amount with Oil Red O was determined. The measured level at ABS550 in the control group was defined as 100%, while the level at ABS550 in the blank group was defined as 0%. The differentiation rate (%) of the adipocytes treated with the test compound was calculated.

For `CCCCCCN(CCCCC)c1ccc(-c2ccc(NC(=O)c3cc([N+](=O)[O-])ccc3Cl)cc2)cc1` [Example 200, N-[4-[4-(N-Hexyl-N-pentylamino)phenyl]phenyl]-(2-chloro-5-nitrophenyl)carboxamide], the activity at 1 µM [1] was 117% and the activity at 0.1 µM [2] was 44.1%.
`CCCCCCN(CCCCCC)c1ccc(-c2ccc(NC(=O)c3cc([N+](=O)[O-])ccc3Cl)cc2)cc1` [Example 201, N-[4-[4-(N,N-Dihexylamino)phenyl]phenyl]-(2-chloro-5-nitrophenyl)carboxamide] was tested, and the activity at 1 µM [1] was 112%, the activity at 0.1 µM [1] was 114% and the activity at 0.1 µM [2] was 46.9%.
Work on `CCCCCNc1ccc(-c2ccc(NC(=O)c3cc([N+](=O)[O-])ccc3Cl)cc2)cc1` [Example 202, N-[4-[4-(N-Pentylamino)phenyl]phenyl]-(2-chloro-5-nitrophenyl)carboxamide] yielded an activity at 1 µM [1] of 137%, an activity at 0.01 µM [1] of 136% and an activity at 0.1 µM [1] of 133%. For the same compound, the activity at 0.1 µM [2] was 35.4%.
In the case of `CCCCCCCCN(C)c1ccc(-c2ccc(NC(=O)c3cc([N+](=O)[O-])ccc3Cl)cc2)cc1` [Example 226, N-[4-[4-(N-Methyl-N-octylamino)phenyl]phenyl]-(2-chloro-5-nitrophenyl)carboxamide], the activity at 0.01 µM [1] is reported as 111% and the activity at 0.1 µM [2] is reported as 42%.
`CNC(=S)Nc1ccc(-c2ccc(NC(=O)c3cc([N+](=O)[O-])ccc3Cl)cc2)cc1` [Example 236, N-[4-[4-(Methylaminothiocarbonylamino)phenyl]phenyl]-(2-chloro-5-nitrophenyl)carboxamide] was tested, and the activity at 0.01 µM [1] was 112% and the activity at 0.1 µM [2] was 47.1%.
`O=C(Nc1ccccc1)Nc1ccc(-c2ccc(NC(=O)c3cc([N+](=O)[O-])ccc3Cl)cc2)cc1` [Example 242, N-[4-[4-(Phenylaminocarbonylamino)phenyl]phenyl]-(2-chloro-5-nitrophenyl)carboxamide] was tested, and the activity at 0.1 µM [1] was 111% and the activity at 0.1 µM [2] was 57.6%.
`O=C(Nc1ccc(-c2ccc(NC(=O)c3cc([N+](=O)[O-])ccc3Cl)cc2)cc1)Nc1ccc(F)cc1F` [Example 249, N-[4-[4-[(2,4-Difluorophenyl)aminocarbonylamino]phenyl]phenyl]-(2-chloro-5-nitrophenyl)carboxamide] showed an activity at 1 µM [1] of 111%, an activity at 0.01 µM [1] of 114% and an activity at 0.1 µM [1] of 113%. The activity at 0.1 µM [2] was 61.9%.
Compound `NC(=O)NCCc1ccc(NC(=O)c2cc([N+](=O)[O-])ccc2Cl)cc1` [Example 270, N-[4-(2-Aminocarbonylaminoethyl)phenyl]-(2-chloro-5-nitrophenyl)carboxamide] has an activity at 0.01 µM [1] of 118% and an activity at 0.1 µM [2] of 45.9%.
